ChEMBL document CHEMBL1201862, “PubChem BioAssay data set” (2004)
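Dose response: 5 concentrations. Exposure: 48 h. Format: 96-well plates. Endpoint: linear interpolation; highest concentration if not reached. GI50 marks 50% less growth.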 Calls of active or inactive are those of the source. Rule as the data show it: active = GI50 up to about 1.1 µM and inactive = higher.

Legend:
Experiment in all cases: growth of human tumour cells (NCI), 48 h
IGROV-1 = test system: IGROV-1
SNB-75 = test system: SNB-75
SR = test system: SR
Malme-3M = test system: Malme-3M
MOLT-4 = test system: MOLT-4
CAKI-1 = test system: CAKI-1
COLO 205 = test system: COLO 205
SN12C = test system: SN12C
OVCAR-5 = test system: OVCAR-5
NCI-H226 = test system: NCI-H226
EKVX = test system: EKVX
M14 = test system: M14
DU-145 = test system: DU-145
MDA-MB-231 = test system: MDA-MB-231
SF-268 = test system: SF-268
HL-60 = test system: HL-60
KM12 = test system: KM12
HCT-15 = test system: HCT-15
SNB-19 = test system: SNB-19
A498 = test system: A498

| Compound | GI50 (IGROV-1) | GI50 (SNB-75) | GI50 (SR) | GI50 (Malme-3M) | GI50 (MOLT-4) | GI50 (CAKI-1) | GI50 (COLO 205) | GI50 (SN12C) | GI50 (OVCAR-5) | GI50 (NCI-H226) | GI50 (EKVX) | GI50 (M14) | GI50 (DU-145) | GI50 (MDA-MB-231) | GI50 (SF-268) | GI50 (HL-60) | GI50 (KM12) | GI50 (HCT-15) [µM] | GI50 (SNB-19) | GI50 (A498) |
| --- | --- | --- | --- | --- | --- | --- | --- | --- | --- | --- | --- | --- | --- | --- | --- | --- | --- | --- | --- | --- |
| C=C1C[C@]23CC[C@@H]4C(CO)(CO)CC(=O)C[C@]4(C)[C@@H]2C(O)C[C@H]1C3 (some centres not stated) | > 100 µM (inactive) | > 100 µM (inactive) | > 100 µM (inactive) | > 100 µM (inactive) | > 100 µM (inactive) | > 100 µM (inactive) | > 100 µM (inactive) | > 100 µM (inactive) | > 100 µM (inactive) | > 100 µM (inactive) | > 100 µM (inactive) | > 100 µM (inactive) | > 100 µM (inactive) | > 100 µM (inactive) | > 100 µM (inactive) | > 100 µM (inactive) | > 100 µM (inactive) | > 100 | > 100 µM (inactive) | – |
| CCC(/C=C/c1ccccc1)=N\Nc1ccc(Cl)c(Cl)c1 | 5.14 µM (inactive) | 41.3 µM (inactive) | 34.8 µM (inactive) | 32.1 µM (inactive) | 31 µM (inactive) | 34.9 µM (inactive) | 24.9 µM (inactive) | 24.4 µM (inactive) | 66.1 µM (inactive) | 21.5 µM (inactive) | 30.3 µM (inactive) | 56.4 µM (inactive) | 89.1 µM (inactive) | 17.8 µM (inactive) | 36.3 µM (inactive) | 27.8 µM (inactive) | 29.3 µM (inactive) | 29.7 | 52.1 µM (inactive) | – |
| COc1cc(/C=C/C(=O)OC2C(O)C3CC(OC(=O)c4cc(OC)c(OC)c(OC)c4)CC2N3C)cc(OC)c1OC (configuration not stated) | 0.43 µM (active) | 8.73 µM (inactive) | 10.1 µM (inactive) | – | 46 µM (inactive) | 27 µM (inactive) | 12.3 µM (inactive) | 9.89 µM (inactive) | > 50 µM (inactive) | 12.1 µM (inactive) | > 50 µM (inactive) | > 50 µM (inactive) | > 50 µM (inactive) | 16.1 µM (inactive) | > 50 µM (inactive) | – | 25.3 µM (inactive) | 28.1 | 12.9 µM (inactive) | 8.04 µM (inactive) |
| CC(C)NC(=O)OCc1c2c(n(C)c1COC(=O)NC(C)C)-c1cc(Cl)c(Cl)cc1CC2 | 20.3 µM (inactive) | 29.4 µM (inactive) | > 100 µM (inactive) | 49.3 µM (inactive) | 18.7 µM (inactive) | – | 31.3 µM (inactive) | 43 µM (inactive) | 25.8 µM (inactive) | 8.91 µM (inactive) | 33.3 µM (inactive) | 27.9 µM (inactive) | 70.8 µM (inactive) | 15.5 µM (inactive) | 69.2 µM (inactive) | – | 30.6 µM (inactive) | 23.8 | 37.8 µM (inactive) | 6.37 µM (inactive) |
| CN(C)c1ccc(/C=N/c2ccc(-c3nc4ccccc4o3)cc2)cc1 | 42.6 µM (inactive) | 54.7 µM (inactive) | 36 µM (inactive) | > 100 µM (inactive) | 24.7 µM (inactive) | – | 30.5 µM (inactive) | 60.8 µM (inactive) | > 100 µM (inactive) | – | 28.6 µM (inactive) | 58.5 µM (inactive) | 52.5 µM (inactive) | 53.2 µM (inactive) | 79.1 µM (inactive) | 20.8 µM (inactive) | 31.8 µM (inactive) | 31.8 | > 100 µM (inactive) | 53 µM (inactive) |
| CC(=O)O[C@H]1C(=O)[C@@]2(C)C(C(OC(=O)c3ccccc3)[C@]3(O)CC(OC(=O)C(O)C(NC(=O)c4ccccc4)c4cccc(Cl)c4)C(C)=C1C3(C)C)[C@]1(OC(C)=O)CO[C@@H]1C[C@@H]2O (some centres not stated) | 3.88 µM (inactive) | 2.62 µM (inactive) | 1.47 µM (inactive) | > 10 µM (inactive) | 4.8 µM (inactive) | > 10 µM (inactive) | 3.1 µM (inactive) | 4.17 µM (inactive) | 4.15 µM (inactive) | > 10 µM (inactive) | 7.23 µM (inactive) | > 10 µM (inactive) | 3.57 µM (inactive) | > 10 µM (inactive) | 7.26 µM (inactive) | 1.38 µM (inactive) | 3.72 µM (inactive) | > 10 | > 10 µM (inactive) | – |
| COc1cccc2c(NNc3ccccc3)c3ccc([N+](=O)[O-])cc3nc12 | 21.7 µM (inactive) | – | 18.7 µM (inactive) | 54.3 µM (inactive) | 1.03 µM (active) | 12 µM (inactive) | 46.3 µM (inactive) | 47.1 µM (inactive) | > 100 µM (inactive) | 24.9 µM (inactive) | 78.2 µM (inactive) | 24 µM (inactive) | 73.6 µM (inactive) | 43.6 µM (inactive) | 19.6 µM (inactive) | – | 11.6 µM (inactive) | 33 | > 100 µM (inactive) | 43.5 µM (inactive) |
| CCOC(=O)c1sc2nc(SC)nc(Nc3ccc(OC)c(OC)c3)c2c1N | > 100 µM (inactive) | – | 20.9 µM (inactive) | 23.2 µM (inactive) | – | 89.9 µM (inactive) | 83.4 µM (inactive) | 60.3 µM (inactive) | > 100 µM (inactive) | 7.94 µM (inactive) | 23.3 µM (inactive) | 42.4 µM (inactive) | 20.2 µM (inactive) | 3.78 µM (inactive) | 14.3 µM (inactive) | > 100 µM (inactive) | > 100 µM (inactive) | > 100 | 18 µM (inactive) | 4.76 µM (inactive) |
| N[C@H]1CCc2c1nc1c(c2-c2ccccc2)CC[C@@H]1N | 14.7 µM (inactive) | 11.9 µM (inactive) | 31.5 µM (inactive) | 16.7 µM (inactive) | 8.73 µM (inactive) | 14.8 µM (inactive) | 20.6 µM (inactive) | 44.1 µM (inactive) | 18.3 µM (inactive) | 33.6 µM (inactive) | > 100 µM (inactive) | 16.3 µM (inactive) | 24.2 µM (inactive) | 18.3 µM (inactive) | 18.1 µM (inactive) | 15.7 µM (inactive) | 28.9 µM (inactive) | 34.4 | 82.8 µM (inactive) | – |
| CO/N=C(\C)c1ccc(Nc2nc3ccccc3c3occc23)cc1 | 16.1 µM (inactive) | – | 24.7 µM (inactive) | 14.6 µM (inactive) | 17.1 µM (inactive) | 16.4 µM (inactive) | 14.5 µM (inactive) | 15.2 µM (inactive) | 16.3 µM (inactive) | 8.18 µM (inactive) | 14 µM (inactive) | 16.3 µM (inactive) | 15.5 µM (inactive) | 12.7 µM (inactive) | 16.4 µM (inactive) | 26.5 µM (inactive) | 17.6 µM (inactive) | 15.1 | 15.5 µM (inactive) | 16 µM (inactive) |
| CNc1nc(OC)c2c(n1)n(C)c[n+]2C [HETEROMINE B] | > 100 µM (inactive) | > 100 µM (inactive) | – | > 100 µM (inactive) | > 100 µM (inactive) | > 100 µM (inactive) | > 100 µM (inactive) | > 100 µM (inactive) | > 100 µM (inactive) | > 100 µM (inactive) | > 100 µM (inactive) | > 100 µM (inactive) | > 100 µM (inactive) | > 100 µM (inactive) | > 100 µM (inactive) | > 100 µM (inactive) | > 100 µM (inactive) | > 100 | > 100 µM (inactive) | > 100 µM (inactive) |
| C=C(C)C(=O)CC[C@@H](C)[C@H]1[C@@H](OC2OC(CO)C(O)C(O)C2O)C[C@@]2(C)[C@@H]3C[C@H](O)C4C(C)(C)[C@@H](OC5OC(CO)C(O)C(O)C5O)CC[C@@]45C[C@@]35CC[C@]12C (some centres not stated) | > 100 µM (inactive) | > 100 µM (inactive) | 71.1 µM (inactive) | > 100 µM (inactive) | 62.1 µM (inactive) | 66.4 µM (inactive) | 92 µM (inactive) | 68.1 µM (inactive) | > 100 µM (inactive) | – | > 100 µM (inactive) | > 100 µM (inactive) | > 100 µM (inactive) | > 100 µM (inactive) | > 100 µM (inactive) | 19.7 µM (inactive) | > 100 µM (inactive) | > 100 | 48.8 µM (inactive) | > 100 µM (inactive) |
| CC(/C=C/C(O)=C1/C(=O)CNC1=O)=C\[C@@H](C)[C@H]1O[C@@]2(C)O[C@H](C(=O)[C@@H]3O[C@@]32C)[C@@H]1C | 20.4 µM (inactive) | 34.8 µM (inactive) | – | 18.1 µM (inactive) | 14.7 µM (inactive) | 19.4 µM (inactive) | 20.7 µM (inactive) | 20.3 µM (inactive) | 18.3 µM (inactive) | 21.2 µM (inactive) | 17.7 µM (inactive) | 31.8 µM (inactive) | 18.9 µM (inactive) | 18.4 µM (inactive) | 21.1 µM (inactive) | 11.7 µM (inactive) | 20 µM (inactive) | 18.4 | 22.9 µM (inactive) | 14.3 µM (inactive) |
| Cn1cc(-c2ccc(CCOC3CCCCO3)cc2)c2c(C#N)cccc21 (configuration not stated) | > 100 µM (inactive) | – | 17.2 µM (inactive) | 83 µM (inactive) | 16.1 µM (inactive) | > 100 µM (inactive) | 27 µM (inactive) | > 100 µM (inactive) | > 100 µM (inactive) | – | 35.6 µM (inactive) | 37.8 µM (inactive) | > 100 µM (inactive) | 86.1 µM (inactive) | > 100 µM (inactive) | 19.9 µM (inactive) | 61.7 µM (inactive) | 16.6 | > 100 µM (inactive) | 61.2 µM (inactive) |
| COC(=O)c1nc(Cl)nc(Cl)c1Cl | 22.8 µM (inactive) | 87.7 µM (inactive) | 15.1 µM (inactive) | 20.8 µM (inactive) | 10.5 µM (inactive) | 18.2 µM (inactive) | 18.6 µM (inactive) | 20.9 µM (inactive) | 23.5 µM (inactive) | 27 µM (inactive) | – | 20.7 µM (inactive) | 70.3 µM (inactive) | 17.6 µM (inactive) | 19.1 µM (inactive) | – | 22.2 µM (inactive) | 21.9 | 83.8 µM (inactive) | – |
